Test results reported in ChEMBL document CHEMBL1201862, “PubChem BioAssay data set” (2004).
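Method: 48-hour compound exposure of cells in 96-well plates, five concentrations, linear interpolation of endpoints. GI50: concentration for 50% inhibition of growth.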 Activity calls are given as the source filed them. Rule as the data show it: active = GI50 up to about 1.1 µM and inactive = higher.

Experiments:
Assay in all cases: NCI tumour cell line growth inhibition, 48 h
OVCAR-4 = system: OVCAR-4
NCI/ADR-RES = system: NCI/ADR-RES
SK-OV-3 = system: SK-OV-3
SK-MEL-5 = system: SK-MEL-5
COLO 205 = system: COLO 205
SK-MEL-2 = system: SK-MEL-2
EKVX = system: EKVX
T47D = system: T47D
IGROV-1 = system: IGROV-1
A549 = system: A549
SNB-19 = system: SNB-19
HCT-15 = system: HCT-15
CCRF-CEM = system: CCRF-CEM
RXF 393 = system: RXF 393
ACHN = system: ACHN
KM12 = system: KM12
BT-549 = system: BT-549
K562 = system: K562
Hs-578T = system: Hs-578T

Row | Structure (SMILES) | GI50 (OVCAR-4) | GI50 (NCI/ADR-RES) | GI50 (SK-OV-3) | GI50 (SK-MEL-5) | GI50 (COLO 205) | GI50 (SK-MEL-2) | GI50 (EKVX) | GI50 (T47D) | GI50 (IGROV-1) | GI50 (A549) | GI50 (SNB-19) | GI50 (HCT-15) [µM] | GI50 (CCRF-CEM) | GI50 (RXF 393) | GI50 (ACHN) | GI50 (KM12) | GI50 (BT-549) | GI50 (K562) | GI50 (Hs-578T)
1 | N#Cc1c(-c2ccccc2)c(/N=N/c2ccc(Cl)cc2)c(=O)n2c1[nH]c1ccccc12 | 15.7 µM (inactive) | 92.9 µM (inactive) | 94.2 µM (inactive) | 55.8 µM (inactive) | > 100 µM (inactive) | > 100 µM (inactive) | 71.4 µM (inactive) | 97.1 µM (inactive) | 73.1 µM (inactive) | > 100 µM (inactive) | > 100 µM (inactive) | > 100 | > 100 µM (inactive) | 42.1 µM (inactive) | > 100 µM (inactive) | 44.2 µM (inactive) | > 100 µM (inactive) | – | –
2 | CC(=O)n1[nH]c(=O)n(-c2ccc(Cl)cc2)c1=O | > 100 µM (inactive) | > 100 µM (inactive) | > 100 µM (inactive) | > 100 µM (inactive) | > 100 µM (inactive) | > 100 µM (inactive) | > 100 µM (inactive) | > 100 µM (inactive) | > 100 µM (inactive) | > 100 µM (inactive) | > 100 µM (inactive) | > 100 | > 100 µM (inactive) | > 100 µM (inactive) | > 100 µM (inactive) | > 100 µM (inactive) | > 100 µM (inactive) | > 100 µM (inactive) | –
3 | Fc1ccc(/N=N/N2CCCC2)cc1 | > 100 µM (inactive) | – | > 100 µM (inactive) | 33.9 µM (inactive) | > 100 µM (inactive) | > 100 µM (inactive) | > 100 µM (inactive) | 19.2 µM (inactive) | 82.4 µM (inactive) | > 100 µM (inactive) | > 100 µM (inactive) | 25.2 | 52.2 µM (inactive) | > 100 µM (inactive) | 68.4 µM (inactive) | 92.3 µM (inactive) | 41.8 µM (inactive) | 4.66 µM (inactive) | > 100 µM (inactive)
4 | C=CC(C)(O)/C=C/C=C(\C)C(CC1OC1(C)C)OC(=O)/C(C)=C\C (centres undefined) | > 100 µM (inactive) | > 100 µM (inactive) | > 100 µM (inactive) | > 100 µM (inactive) | > 100 µM (inactive) | > 100 µM (inactive) | > 100 µM (inactive) | > 100 µM (inactive) | > 100 µM (inactive) | > 100 µM (inactive) | > 100 µM (inactive) | > 100 | – | > 100 µM (inactive) | > 100 µM (inactive) | > 100 µM (inactive) | > 100 µM (inactive) | > 100 µM (inactive) | > 100 µM (inactive)
5 | COc1cccc2[nH]c(-c3ccccn3)nc12 | > 100 µM (inactive) | 14.3 µM (inactive) | > 100 µM (inactive) | > 100 µM (inactive) | > 100 µM (inactive) | > 100 µM (inactive) | > 100 µM (inactive) | > 100 µM (inactive) | > 100 µM (inactive) | > 100 µM (inactive) | > 100 µM (inactive) | 55.7 | – | > 100 µM (inactive) | 56.2 µM (inactive) | > 100 µM (inactive) | > 100 µM (inactive) | > 100 µM (inactive) | 68.9 µM (inactive)
6 | COc1ccc(N2C(=O)c3cccnc3S2(=O)=O)cc1 | > 100 µM (inactive) | > 100 µM (inactive) | > 100 µM (inactive) | – | > 100 µM (inactive) | > 100 µM (inactive) | > 100 µM (inactive) | > 100 µM (inactive) | > 100 µM (inactive) | > 100 µM (inactive) | > 100 µM (inactive) | > 100 | > 100 µM (inactive) | > 100 µM (inactive) | > 100 µM (inactive) | > 100 µM (inactive) | > 100 µM (inactive) | > 100 µM (inactive) | –
7 | O=C(O)c1ccc([N+](=O)[O-])c2cc3cnccc3nc12 | – | 25.9 µM (inactive) | 56.9 µM (inactive) | 19.1 µM (inactive) | 21.5 µM (inactive) | 17.9 µM (inactive) | – | 18.6 µM (inactive) | 34.7 µM (inactive) | – | > 10 µM (inactive) | 20.1 | 2.31 µM (inactive) | 27.1 µM (inactive) | – | 22.4 µM (inactive) | 19.1 µM (inactive) | 5.78 µM (inactive) | 35 µM (inactive)
8 | N=C(N)N/N=C/c1nc2sccn2c1[N+](=O)[O-] | 13.7 µM (inactive) | > 100 µM (inactive) | 52.5 µM (inactive) | 18.7 µM (inactive) | 16.2 µM (inactive) | 19 µM (inactive) | 34.2 µM (inactive) | 18.2 µM (inactive) | 60.4 µM (inactive) | 35.4 µM (inactive) | 35.2 µM (inactive) | 47.8 | – | 8.77 µM (inactive) | 60.3 µM (inactive) | 16.6 µM (inactive) | 39.9 µM (inactive) | 18.7 µM (inactive) | 24.7 µM (inactive)
